Results reported in US20070105780A1, “Therapeutic agent for iNOS generating illness” (priority 2005, published 2007).
“Also recorded” adds a separate entry of the source. Where a SMILES comes first, the peptide text is derived from it. [ ]: non-standard residue; d: D form. The star is where a group is joined. Sta = CC(C)C[C@H](N)[C@@H](O)CC(=O)O; Isovaleryl = CC(C)CC(=O)*; Nle = CCCC[C@H](N)C(=O)O

T1: calpain (Mus musculus, UniProt O35350)
T1 construct: enzymatic activity of calpain in the supernatant fraction of the dexamethasone treated, induced cell lysate
T1 sequence (O35350 1-713): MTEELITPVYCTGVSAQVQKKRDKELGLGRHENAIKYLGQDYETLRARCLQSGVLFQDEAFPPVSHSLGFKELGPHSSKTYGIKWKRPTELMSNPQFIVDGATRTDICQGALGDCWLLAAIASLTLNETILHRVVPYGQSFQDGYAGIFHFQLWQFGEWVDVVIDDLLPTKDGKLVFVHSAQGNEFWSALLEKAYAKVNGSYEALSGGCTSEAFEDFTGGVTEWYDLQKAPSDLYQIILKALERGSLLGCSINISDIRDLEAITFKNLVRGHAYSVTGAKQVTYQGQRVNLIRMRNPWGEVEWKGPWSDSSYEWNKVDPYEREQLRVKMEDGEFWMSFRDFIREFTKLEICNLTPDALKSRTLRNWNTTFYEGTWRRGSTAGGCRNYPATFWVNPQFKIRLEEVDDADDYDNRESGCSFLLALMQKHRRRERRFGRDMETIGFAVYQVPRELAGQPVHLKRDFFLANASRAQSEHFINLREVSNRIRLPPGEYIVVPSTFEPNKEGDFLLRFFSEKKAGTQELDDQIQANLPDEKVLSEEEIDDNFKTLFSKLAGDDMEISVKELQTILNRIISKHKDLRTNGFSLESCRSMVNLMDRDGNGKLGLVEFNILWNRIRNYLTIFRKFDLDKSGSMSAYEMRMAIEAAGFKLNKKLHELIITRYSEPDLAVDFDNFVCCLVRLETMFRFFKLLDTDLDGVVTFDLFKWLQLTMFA
T1 sequence (O88456 1-268 partner): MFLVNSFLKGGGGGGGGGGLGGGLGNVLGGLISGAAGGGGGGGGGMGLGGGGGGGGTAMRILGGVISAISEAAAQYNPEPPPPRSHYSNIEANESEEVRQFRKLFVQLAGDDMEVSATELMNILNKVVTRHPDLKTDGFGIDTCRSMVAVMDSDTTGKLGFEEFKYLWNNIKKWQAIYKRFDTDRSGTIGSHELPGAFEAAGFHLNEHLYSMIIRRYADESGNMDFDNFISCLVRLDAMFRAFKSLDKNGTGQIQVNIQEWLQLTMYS


Assays:
[1] = test system: proteolytic cleavage of iNOS in induced DLD-1-5B2 cells; experiment: Inhibition of the cleavage of iNOS in situ in induced DLD-1-5B2 cells (Western blot of particulate fraction); format: cell-based, human; conditions: nine hours; for fragmentation (proteolytic cleavage) of iNOS in situ: 24-well plates, 20 μg/well, inhibitor added three hours after start of induction, Western blot FIG. 8; for fragmentation (proteolytic cleavage) of iNOS in situ, larger scale production: T-75 flasks, inhibitor added 3 hours after induction, Western blot FIG. 9
Procedure: DLD-1-5B2 cells, two days past confluence, were induced to express human iNOS using a mixture of recombinant human gamma interferon (rhIFNγ) at 8.33 ng/ml, recombinant human tumor necrosis factor-alpha (rhTNFα) at 3.3 ng/ml, and recombinant human interleukin-1β (rhIL-1β) at 3.3 ng/ml for 12-18 hours before being washed and harvested with trypsin/EDTA. The induced cells were washed three times with sterile PBS, transferred into sterile tubes in a small volume of sterile PBS, and stored frozen at −20° C. until processed for the isolation and fractionation of iNOS.
The frozen, induced DLD-1-5B2 cells were thawed in an ice water bath and lysed by two rapid freeze/thaw cycles using dry ice. The iNOS produced by the induced DLD-1-5B2 cells was then fractionated into a supernatant (soluble) fraction and a particulate fraction. The lysed cells were centrifuged at 16,000×g at 4° C. for 30 minutes to pellet the particulate fraction. The supernatant fraction that contained the soluble iNOS was transferred and stored at −20° C. or used fresh. The pellets were washed once, resuspended in a small volume of ice cold sterile PBS, and the resulting particulate fraction of iNOS was stored at −20° C. or used fresh.
The ability of six specific protease inhibitors to inhibit the cleavage of iNOS in situ was investigated using induced DLD-1-5B2 cells cultured in 24-well plates. Briefly, DLD-1-5B2 cells were cultured in 24-well plates instead of T-75 flasks, as described previously. Two days past confluence, the cells were induced with the same mixture of cytokines, but after three hours, the induction medium was removed from each well, the cells washed with pre-warmed sterile saline, and the medium replaced either with fresh DMEM, or with DMEM containing one of the six protease inhibitors being tested. Each inhibitor was assayed in triplicate at 20 μg/well. Nine hours later (12 hours after the start of the induction) the medium containing the inhibitors was removed, the cells were washed three times with ice-cold PBS, and the 24-well plates were placed on sheets of ice for 10 minutes to loosen the cells from the bottom of the plastic wells. The cells were blown off each well individually using a mechanical pipettor, sterile pipet tips, and ice-cold, sterile PBS. The cells were transferred to individual microfuge tubes on ice, collected by centrifugation, and washed twice with sterile, ice-cold PBS. No trypsin or other protease or EDTA was used during the harvesting or processing of the induced cells. The cells were lysed by 2 freeze/thaw cycles using dry ice and processed as previously described to isolate a supernatant fraction and a particulate fraction by centrifugation at 16,000×g. Both fractions were assayed in duplicate using the chemiluminescent EIA taught in U.S. patent application Ser. No. 09/628,585, and pools of the triplicate samples obtained for each protease inhibitor were analyzed by western blot. No statistically significant difference was found in the amount of iNOS contained in any of the supernatant fractions when compared to other supernatant fractions. Likewise, no statistically significant difference was found in the amount of iNOS contained in any of the particulate fractions when compared to other particulate fractions as measured by the EIA. Further, the distribution of iNOS between the supernatant and particulate fractions was similar for all the samples: the percent of the total iNOS in the supernatant fraction ranged from 55% to 65% and the percent of the total iNOS in the particulate fraction ranged from 35% to 45%. However, as is shown in FIG. 8, a difference in the form of the iNOS was found in the particulate fractions obtained from two of the protease inhibitors.
The quantity of particulate fraction produced was scaled up in T-75 culture flasks for both of these protease inhibitors in order to make enough material to be tested for their individual lethality in our mouse model of sepsis. […]

mouse model of sepsis = experiment: Lethality of particulate fractions produced in presence of protease inhibitors, mouse model of sepsis; format: in vivo; conditions: LPS primed mice, N=10 per group; E-64 vs no inhibitor P<0.0002, vs SBTI P<0.002
Procedure: It was reasoned that the conversion of soluble iNOS to particulate iNOS, and thereby to lethal iNOS, might be the result of the proteolytic cleavage of the intact protein molecule. It was hypothesized that decreasing the cleavage process might be beneficial to septic patients since the lethal form of iNOS would be reduced or eliminated. This hypothesis was tested using various protease inhibitors. The loss of lethality produced by specific protease inhibitors was assessed by testing the lethal effects exerted by the administration of the particulate iNOS produced in the presence and absence of protease inhibitors to LPS primed mice.
The three particulate fractions prepared in Example IX were tested for their lethality on groups of mice (5 female and 5 male mice per group, N=10) using our mouse model of sepsis. […] It is believed that treatment of septic patients with a protease inhibitor that decreases or stops the cleavage of iNOS in vivo could serve as an effective therapy for SIRS, sepsis, severe sepsis and septic shock.

calpain = biological target: T1, calpain; conditions: supernatant fraction of dexamethasone treated, induced cell lysate; cited from earlier work

Molecule | fragmentation (proteolytic cleavage) of iNOS in situ [1] | lethality of the particulate iNOS fraction isolated from cells induced in the presence of the inhibitor (mouse model of sepsis) | fragmentation (proteolytic cleavage) of iNOS in situ, larger scale production [1] | cleavage of recombinant iNOS protein by calpain (calpain) | fragmentation (proteolytic cleavage) of iNOS in situ ([1]; listed as leupeptin)
CC(C)CC(=O)N[C@H](C(=O)N[C@H](C(=O)N[C@@H](CC(C)C)[C@@H](O)CC(=O)N[C@@H](C)C(=O)N[C@@H](CC(C)C)[C@@H](O)CC(=O)O)C(C)C)C(C)C [pepstatin-A] (Isovaleryl-VV[Sta]A[Sta]-OH) | did not stop (inhibit) this cleavage process | had no effect on the lethality of the particulate iNOS fraction |  |  | 
α1-protease inhibitor: protease inhibitor | did not stop (inhibit) this cleavage process | had no effect on the lethality of the particulate iNOS fraction |  |  | 
aprotinin | did not stop (inhibit) this cleavage process |  |  |  | 
CC(C)C[C@H](NC(=O)[C@H]1O[C@@H]1C(=O)O)C(=O)NCCCCN=C(N)N [E-64] | inhibited the proteolytic cleavage of the intact iNOS protein; also recorded: stopped (inhibited) the fragmentation of iNOS in situ | decrease the lethality of the particulate iNOS fraction; also recorded: statistically significant decrease in lethality | inhibiting the proteolytic cleavage of intact iNOS protein; also recorded: inhibit the fragmentation of iNOS in situ | inhibit such cleavage | 
CCCC[C@@H](C=O)NC(=O)[C@H](CC(C)C)NC(=O)[C@H](CC(C)C)NC(C)=O [Ac-Leu-Leu-NLeu-al] (Ac-Leu-Leu-[Nle]-aldehyde) |  |  |  | inhibit such cleavage | 
CC(=O)N[C@@H](CC(C)C)C(=O)N[C@@H](CC(C)C)C(=O)N[C@H](C=O)CCCNC(=N)N [Leupeptin, leupeptin] | stopped (inhibited) the fragmentation of iNOS in situ | decrease the lethality of the particulate iNOS fraction |  | inhibit such cleavage | inhibited the proteolytic cleavage of the intact iNOS protein
soybean trypsin inhibitor: protease inhibitor (protein, UniProt P01070 25-205, looked up) Trypsin inhibitor A: DFVLDNEGNPLENGGTYYILSDITAFGGIRAAPTGNERCPLTVVQSRNELDKGIGTIISSPYRIRFIAEGHPLSLKFDSFAVIMLCVGIPTEWSVVEDLPEGPAVKIGENKDAMDGWFRLERVSDDEFNNYKLVFCPQQAEDDKCGDIGISIDHDDGTRRLVVSKNKPLVVQFQKLDKESL | did not stop (inhibit) this cleavage process | had no effect on the lethality of the particulate iNOS fraction | inability of soybean trypsin inhibitor (lane 2) to inhibit this cleavage process |  | 
